The values that follow come from ChEMBL document CHEMBL1201862, “PubChem BioAssay data set” (2004).

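How tested: cells in 96-well plates exposed to compound for 48 hours at five concentrations. GI50: concentration for 50% inhibition of growth.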 The source made the active and inactive calls. No stated cut-off is given here; in the data, active = GI50 up to about 1.1 µM and inactive = higher.

Among the test systems are SN12C; LOX IMVI; HCT-116; HT-29; UACC-62; 786-0; HOP-62; MDA-N; SK-MEL-28; SW-620; SK-MEL-2; CCRF-CEM; UO-31; SR; A498; DU-145; HCT-15; NCI-H522; HCC 2998; CAKI-1.
Common to all, as to assay: NCI anticancer screen, dose series, 48 h

Regarding `CC(CCC#N)(CCC#N)C(=O)CC(O)(C(F)(F)F)C(F)(F)F`, the GI50 in the test on SN12C is 7.24 µM (inactive); in the test with LOX IMVI, 2.07 µM (inactive); with HCT-116 it was 2.8 µM (inactive); in the test with HT-29, 6.65 µM (inactive); in the test on UACC-62 it was 6.19 µM (inactive); with 786-0 it was 2.12 µM (inactive). The GI50 was 19.8 µM (inactive) with HOP-62; 1.73 µM (inactive) in the test on MDA-N; 11 µM (inactive) in the test with SK-MEL-28; 2.76 µM (inactive) in the test with SW-620; 33.7 µM (inactive) in the test with SK-MEL-2; 1.54 µM (inactive) in the test on CCRF-CEM. The GI50 in the test with UO-31 is 4.08 µM (inactive); in the test on SR, 1.4 µM (inactive); in the test with A498 it was 20.6 µM (inactive); in the test with DU-145 it was 11.4 µM (inactive); in the test on HCT-15, 2.28 µM; in the test with NCI-H522, 1.85 µM (inactive). In addition, the GI50 in the test with HCC 2998 was 17 µM (inactive); with CAKI-1, 4.09 µM (inactive).

Consider `COC1CC(OC2CCC3(C)C(CCC45CCC(C6=CC(=O)OC6)C(C)(CCC43)C5=O)C2)OC(C)C1O` (stereo not given), for which the GI50 in the test with SN12C was 23.5 µM (inactive); in the test on LOX IMVI it was 38.4 µM (inactive); in the test with HCT-116, 35.1 µM (inactive); with HT-29, 39.5 µM (inactive); with UACC-62, > 100 µM (inactive); with 786-0, 23.6 µM (inactive). The GI50 in the test on HOP-62 is 27 µM (inactive); with MDA-N it was > 100 µM (inactive); in the test with SK-MEL-28 it was > 100 µM (inactive); in the test on SW-620, 43.7 µM (inactive); in the test on SK-MEL-2, 31.3 µM (inactive); in the test with CCRF-CEM, 18.4 µM (inactive). Besides, the GI50 was 16.5 µM (inactive) in the test on UO-31; 28.1 µM (inactive) with SR; 71.4 µM (inactive) in the test with A498; 15.9 µM (inactive) in the test with DU-145; 24.3 µM in the test on HCT-15; 27.9 µM (inactive) in the test on NCI-H522. Besides, the GI50 in the test on HCC 2998 is 13.1 µM (inactive); in the test with CAKI-1 it was 32.6 µM (inactive).

Regarding `COc1cc2c(c(OC)c1OC)C(=O)[C@H](Br)[C@H]2NC(=O)NCCCl`, the GI50 was > 100 µM (inactive) in the test with SN12C; 47.1 µM (inactive) in the test with LOX IMVI; 82.6 µM (inactive) in the test with HCT-116; > 100 µM (inactive) in the test on HT-29; 73.3 µM (inactive) in the test on UACC-62; > 100 µM (inactive) in the test on 786-0. Moreover, the GI50 in the test with HOP-62 is > 100 µM (inactive); in the test with MDA-N, 35.2 µM (inactive); in the test on SK-MEL-28, > 100 µM (inactive); with SW-620, > 100 µM (inactive); in the test on SK-MEL-2, > 100 µM (inactive); with CCRF-CEM, 23.6 µM (inactive). Moreover, the GI50 in the test on UO-31 is > 100 µM (inactive); in the test with SR, 76.2 µM (inactive); with A498, > 100 µM (inactive); with DU-145 it was > 100 µM (inactive); with HCT-15, 62.5 µM; in the test on NCI-H522, > 100 µM (inactive). Also, the GI50 in the test on HCC 2998 and in the test with CAKI-1 was > 100 µM (inactive) in each case.

With `CCN(CC)CCC(=O)N1C/C(=C/c2ccccc2)C(=O)/C(=C\c2ccccc2)C1`, the GI50 in the test on SN12C is 1.3 µM (inactive); with LOX IMVI it was 0.415 µM (active); with HCT-116, 0.321 µM (active); with HT-29, 0.811 µM (active); with UACC-62, 2.03 µM (inactive); in the test with 786-0 it was 2.16 µM (inactive). Moreover, the GI50 with HOP-62 was 13.2 µM (inactive); with MDA-N it was 0.865 µM (active); with SK-MEL-28 it was 1.82 µM (inactive); in the test on SW-620, 0.195 µM (active); in the test on SK-MEL-2 it was 2.19 µM (inactive); in the test on CCRF-CEM it was 0.219 µM (active). For the same compound, the GI50 was 1.71 µM (inactive) in the test on UO-31; 0.344 µM (active) with SR; 3.96 µM (inactive) in the test on A498; 3.15 µM (inactive) with DU-145; 1.24 µM in the test with HCT-15; 0.746 µM (active) in the test with NCI-H522. Further, the GI50 in the test on HCC 2998 is 0.706 µM (active); with CAKI-1, 2.3 µM (inactive).
